Here are results for one compound from US20180085333A1, “4-PHENYLBUTYRIC ACID DERIVATIVES” (priority 2015, published 2018).

What all share (parameters): species or system human
In one assay the test system is psoriasis. The assay is described as follows: In vivo activity of 4-PB against psoriasis (patient case). As to conditions: received 4-PB for colon carcinoma, after four months of treatment, lasting after sessions of 4-PB. From the text:
A patient with generalized psoriasis, who has been treated for years with corticoids ointments, received 4-PB for a colon carcinoma.

The test system of a further assay is varicose veins. In words: In vivo activity of 4-PB against varicose veins (patient case). As to the method: A patient with breast cancer was treated with 4-PB.
The test system of assay [1] is major depressive disorder. In words: In vivo activity of 4-PB against major depressive disorder (patient cases). How it is done: Four female patients and one patient with major depressive disorders, some of which suffering from other diseases, were treated with 4-PB.
In another assay the test system is ulcerative colitis. In words: In vivo activity of 4-PB against ulcerative colitis (patient case).
The next assay deals with tinnitus. In words: In vivo activity of 4-PB against tinnitus (patient cases). As to conditions: two male patients with tinnitus lasting more than ten years, after four months of treatment. As to the method:
Two male patients with tinnitus, lasting for more than ten years, were treated with 4-PB.

Assay [2] concerns primary sclerosing cholangitis. The assay is described as follows: In vivo activity of 4-PB against primary sclerosing cholangitis (patient cases). The settings on record: two female patients chosen for liver transplant, after 5 months of treatment. As to the method:
Two female patients with primary sclerosing cholangitis were treated with 4-PB. Both had recurrent fever and abdominal pains for days. Both were chosen for liver transplant.

Assay [3] has as its system recurrent vulvo-vaginitis. In words: In vivo activity of 4-PB against recurrent vulvo-vaginitis (patient cases). As to conditions: two female patients. As to the method: Two female patients were treated with 4-PB for other reasons (one for cancer and one for depressions).

Take `C[C@@H](NC(=O)CCCc1ccccc1)C(=O)O` [4-PB, N-(4-phenylbutanoyl)-D-alanine]: the “remission of generalized psoriasis” value in the assay on psoriasis was “complete remission”. The “spider veins on both legs” value with varicose veins (patient with breast cancer treated with 4-PB) is given as “remained unchanged”. For the same compound, the “enlarged (varicose) veins on both legs” value in the assay with varicose veins (patient with breast cancer, during therapy with 4-PB) is given as “disappearance of the enlarged veins on both legs”. The “recurrence of enlarged veins” value in the assay with varicose veins (patient, in the next 10 years) is “without a recurrence”. In addition, the depressions entry in assay [1] (four female patients and one patient with major depressive disorders) was “depressions disappeared in three to five months”. In addition, in assay [1] (four female patients and one patient, after disappearance of depressions), the recurrence of depression result was “No recurrences have been observed”. Besides, in the assay on ulcerative colitis (patient with recurrent episodes of ulcerative colitis), the “response of ulcerative colitis to 4-PB” value is listed as “good response”. The “bowel state and symptoms (pain, diarrhea)” value in the assay with ulcerative colitis (patient, after 6 months of treatment) was “bowels were normal and they had no pain and no diarrhea anymore”. Moreover, the tinnitus result in the assay on tinnitus was “tinnitus has disappeared in both cases”. Further, the “symptoms and signs of cholangitis” value in assay [2] was “both were free of symptoms and signs of the underlying cholangitis”. In assay [3] (after four months of treatment), the presence of vulvo-vaginitis result is given as “both were free of vulvo-vaginitis”. The “remission of vulvo-vaginitis after sessions of 4-PB” value in assay [3] (even after sessions of 4-PB) is given as “complete remission”.
